Experimental data reported in ChEMBL document CHEMBL1126231, “Synthesis and phototoxicity of a series of haematoporphyrin analogues” (1992).

What was measured:
[1] = In vivo localization capacities at 6 hr post injection in a mouse C6 intracerebral glioma model and the tumor; normal brain ratio was calculated; format: functional
[2] = In vivo localization capacities at 24 hr post injection in a mouse C6 intracerebral glioma model and the tumor; normal brain ratio was calculated; format: functional

Compound	Ratio [1]	Ratio [2]
CCOCCOC(C)C1=C(C)c2cc3[nH]c(cc4[nH]c(cc5nc(cc1n2)C(C)=C5C(C)OCCOCC)c(C)c4CCC(=O)NCCN(C)C)c(CCC(=O)NCCN(C)C)c3C (stereo not given)	15.2	8
CCOC(C)C1=C(C)c2cc3[nH]c(cc4[nH]c(cc5nc(cc1n2)C(C)=C5C(C)OCC)c(C)c4CCC(=O)NCCN(C)C)c(CCC(=O)NCCN(C)C)c3C (stereo not given)	2.4	6.4
CCOC(C)C1=C(C)c2cc3[nH]c(cc4[nH]c(cc5nc(cc1n2)C(C)=C5C(C)OCC)c(C)c4CCC(=O)O)c(CCC(=O)O)c3C (stereo not given)	17.5	8.7
CCOCCOC(C)C1=C(C)c2cc3[nH]c(cc4[nH]c(cc5nc(cc1n2)C(C)=C5C(C)OCCOCC)c(C)c4CCC(=O)O)c(CCC(=O)O)c3C (stereo not given)	37.7	25.1
CC1=C(C(C)SCC(=O)O)c2cc3nc(cc4[nH]c(cc5[nH]c(cc1n2)c(C)c5CCC(=O)O)c(CCC(=O)O)c4C)C(C(C)SCC(=O)O)=C3C (stereo not given)	23	28.2
